Data on seven compounds can be found in ChEMBL document CHEMBL5465560, “Selectivity Literature for EUbOPEN Chemogenomic Library” (2024).

The target of assay [1] is Tyrosine-protein kinase JAK1 (Homo sapiens, UniProt P23458). The assay can be described thus: Selectivity interaction (Kinase panel (Carna Biosciences)) EUB0001542aTs JAK1. The note with it: at 1 µM.
Assay [2] deals with Casein kinase I isoform gamma-2 (Homo sapiens) (UniProt P78368). Description: Selectivity interaction (KinomeScan (DiscoverX)) EUB0000229b CSNK1G2. The settings on record: at 10 µM.
The target in assay [3] is cGMP-inhibited 3',5'-cyclic phosphodiesterase 3A (Homo sapiens, UniProt Q14432). Description: Selectivity interaction (Phosphodiesterase 3 from human platelets ) EUB0000877a PDE3A. It is filed as cell-based, Platelet.
For assay [4], the target named is T1, Dual specificity mitogen-activated protein kinase kinase 3 (Homo sapiens) (UniProt P46734).
T1 sequence (whole entry): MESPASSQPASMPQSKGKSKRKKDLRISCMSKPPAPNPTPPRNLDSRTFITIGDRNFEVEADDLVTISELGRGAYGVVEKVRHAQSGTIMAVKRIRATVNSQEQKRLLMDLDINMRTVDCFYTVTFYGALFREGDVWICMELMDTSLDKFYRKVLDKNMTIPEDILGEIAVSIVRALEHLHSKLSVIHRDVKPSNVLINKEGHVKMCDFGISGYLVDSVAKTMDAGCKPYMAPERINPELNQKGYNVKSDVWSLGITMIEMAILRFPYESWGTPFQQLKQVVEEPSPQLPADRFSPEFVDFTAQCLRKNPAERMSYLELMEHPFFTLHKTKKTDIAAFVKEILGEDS
The assay can be described thus: Selectivity interaction (ActivX KiNativ screen (kinase selectivity in THP-1 cell lysates)) EUB0000639a MAP2K3. It is filed as subcellular. The note with it: lysate, at 5 µM.

Assay [5] deals with T2, Cytoplasmic tyrosine-protein kinase BMX (Homo sapiens) (UniProt P51813).
T2 sequence (whole entry): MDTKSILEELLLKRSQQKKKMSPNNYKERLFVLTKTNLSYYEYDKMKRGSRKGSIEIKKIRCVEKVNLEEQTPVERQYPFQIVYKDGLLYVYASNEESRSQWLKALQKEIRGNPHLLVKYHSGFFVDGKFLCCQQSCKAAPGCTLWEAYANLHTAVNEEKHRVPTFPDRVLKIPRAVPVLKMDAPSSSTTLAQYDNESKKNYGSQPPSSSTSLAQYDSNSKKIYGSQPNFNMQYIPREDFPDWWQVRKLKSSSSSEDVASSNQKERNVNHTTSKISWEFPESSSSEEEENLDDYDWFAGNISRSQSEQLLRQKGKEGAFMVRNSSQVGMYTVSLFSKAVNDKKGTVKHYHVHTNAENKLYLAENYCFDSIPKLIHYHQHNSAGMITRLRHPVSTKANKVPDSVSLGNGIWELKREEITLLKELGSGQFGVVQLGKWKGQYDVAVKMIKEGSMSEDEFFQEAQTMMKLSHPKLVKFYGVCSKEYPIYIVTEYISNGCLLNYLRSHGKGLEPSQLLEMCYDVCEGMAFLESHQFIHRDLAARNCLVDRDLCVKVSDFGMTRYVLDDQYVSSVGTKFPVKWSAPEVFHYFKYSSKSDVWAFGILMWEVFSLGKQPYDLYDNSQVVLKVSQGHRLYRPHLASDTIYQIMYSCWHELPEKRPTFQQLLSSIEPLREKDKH
The assay can be described thus: Selectivity interaction (Kinase screening (Nanosyn)) EUB0000604a BMX.

Assay [6] has as its target T3, Dual specificity mitogen-activated protein kinase kinase 4 (Homo sapiens) (UniProt P45985).
T3 sequence (whole entry): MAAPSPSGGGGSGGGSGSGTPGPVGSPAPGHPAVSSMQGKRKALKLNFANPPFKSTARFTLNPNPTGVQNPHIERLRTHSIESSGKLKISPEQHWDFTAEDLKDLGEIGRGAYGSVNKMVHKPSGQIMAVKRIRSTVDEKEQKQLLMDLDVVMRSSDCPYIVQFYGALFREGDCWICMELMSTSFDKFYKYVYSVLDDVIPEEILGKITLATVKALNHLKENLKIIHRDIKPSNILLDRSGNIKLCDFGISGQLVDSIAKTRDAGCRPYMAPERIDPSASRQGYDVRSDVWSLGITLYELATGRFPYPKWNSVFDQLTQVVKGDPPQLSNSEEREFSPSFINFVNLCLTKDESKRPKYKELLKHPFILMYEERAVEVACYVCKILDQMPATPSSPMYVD
The assay can be described thus: Selectivity interaction (Kinase screening (Upstate/Millipore)) EUB0000604a MAP2K4.

Assay [7] addresses Tyrosine-protein kinase ABL1 (Homo sapiens, UniProt P00519). Description: Selectivity interaction (Kinase screening (Nanosyn)) EUB0000604a ABL1.
Assay [8] concerns the target Cyclin-dependent kinase 18 (Homo sapiens) (UniProt Q07002). The assay can be described thus: Selectivity interaction (KinomeScan (DiscoverX)) EUB0000092b CDK18. The note with it: at 10 µM.
The target of assay [9] is T4, Serine/threonine-protein kinase Nek3 (Homo sapiens) (UniProt P51956).
T4 sequence (whole entry): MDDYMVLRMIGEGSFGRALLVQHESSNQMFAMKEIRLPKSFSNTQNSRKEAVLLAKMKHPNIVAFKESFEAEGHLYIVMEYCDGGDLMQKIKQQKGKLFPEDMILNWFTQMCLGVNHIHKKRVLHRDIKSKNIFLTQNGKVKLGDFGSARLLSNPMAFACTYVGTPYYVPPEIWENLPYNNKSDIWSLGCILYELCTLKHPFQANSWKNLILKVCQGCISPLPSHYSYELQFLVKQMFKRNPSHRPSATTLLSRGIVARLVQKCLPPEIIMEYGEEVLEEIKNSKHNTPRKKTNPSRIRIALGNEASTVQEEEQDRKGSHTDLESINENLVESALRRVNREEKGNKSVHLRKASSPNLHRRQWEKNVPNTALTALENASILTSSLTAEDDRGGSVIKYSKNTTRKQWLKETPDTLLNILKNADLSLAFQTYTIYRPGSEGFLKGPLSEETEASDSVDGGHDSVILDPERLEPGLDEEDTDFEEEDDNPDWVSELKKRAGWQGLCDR
The assay can be described thus: Selectivity interaction (KinomeScan (DiscoverX)) EUB0000045b NEK3.

Chain of cGMP-inhibited 3',5'-cyclic phosphodiesterase 3A (Q14432 whole entry): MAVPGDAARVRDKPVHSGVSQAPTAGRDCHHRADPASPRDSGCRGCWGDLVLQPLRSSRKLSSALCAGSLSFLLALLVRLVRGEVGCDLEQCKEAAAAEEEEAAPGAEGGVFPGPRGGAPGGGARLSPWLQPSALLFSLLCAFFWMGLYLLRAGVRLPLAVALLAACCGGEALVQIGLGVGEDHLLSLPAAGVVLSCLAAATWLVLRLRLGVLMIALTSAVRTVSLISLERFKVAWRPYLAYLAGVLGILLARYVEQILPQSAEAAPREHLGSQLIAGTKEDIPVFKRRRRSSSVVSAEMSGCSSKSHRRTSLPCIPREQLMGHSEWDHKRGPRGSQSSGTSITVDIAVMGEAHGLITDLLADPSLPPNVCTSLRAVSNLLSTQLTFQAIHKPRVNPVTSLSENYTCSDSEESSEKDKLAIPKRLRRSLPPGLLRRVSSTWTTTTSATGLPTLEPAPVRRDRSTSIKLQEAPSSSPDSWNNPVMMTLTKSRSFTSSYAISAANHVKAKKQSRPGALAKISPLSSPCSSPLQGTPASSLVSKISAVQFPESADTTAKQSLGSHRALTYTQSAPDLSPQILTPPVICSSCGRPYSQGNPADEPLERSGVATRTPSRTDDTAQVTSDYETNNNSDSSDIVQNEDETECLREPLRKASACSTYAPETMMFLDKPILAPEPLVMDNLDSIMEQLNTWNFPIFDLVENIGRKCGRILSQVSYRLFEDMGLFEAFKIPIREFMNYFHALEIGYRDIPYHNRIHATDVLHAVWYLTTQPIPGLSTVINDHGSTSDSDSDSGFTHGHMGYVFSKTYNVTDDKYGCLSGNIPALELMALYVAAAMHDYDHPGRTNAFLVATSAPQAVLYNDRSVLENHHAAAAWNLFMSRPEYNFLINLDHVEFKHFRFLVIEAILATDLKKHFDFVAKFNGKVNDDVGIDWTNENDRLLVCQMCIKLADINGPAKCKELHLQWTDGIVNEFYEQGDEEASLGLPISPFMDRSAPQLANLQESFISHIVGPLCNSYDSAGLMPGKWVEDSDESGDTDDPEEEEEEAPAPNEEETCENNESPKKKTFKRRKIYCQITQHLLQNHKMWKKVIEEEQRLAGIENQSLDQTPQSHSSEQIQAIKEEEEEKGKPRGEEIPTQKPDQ
Chain of Casein kinase I isoform gamma-2 (Homo sapiens) (P78368 whole entry, looked up, canonical isoform): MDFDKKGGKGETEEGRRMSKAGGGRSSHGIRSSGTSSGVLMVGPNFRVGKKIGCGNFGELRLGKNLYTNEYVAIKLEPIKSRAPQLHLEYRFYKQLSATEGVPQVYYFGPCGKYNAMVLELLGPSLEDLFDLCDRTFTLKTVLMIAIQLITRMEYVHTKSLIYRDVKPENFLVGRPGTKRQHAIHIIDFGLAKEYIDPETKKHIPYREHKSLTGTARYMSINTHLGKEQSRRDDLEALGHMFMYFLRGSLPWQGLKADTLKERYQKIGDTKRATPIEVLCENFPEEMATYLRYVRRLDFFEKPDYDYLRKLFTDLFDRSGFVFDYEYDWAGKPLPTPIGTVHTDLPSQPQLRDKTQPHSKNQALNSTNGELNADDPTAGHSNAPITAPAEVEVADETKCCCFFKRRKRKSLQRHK
Chain of Tyrosine-protein kinase ABL1 (P00519 whole entry): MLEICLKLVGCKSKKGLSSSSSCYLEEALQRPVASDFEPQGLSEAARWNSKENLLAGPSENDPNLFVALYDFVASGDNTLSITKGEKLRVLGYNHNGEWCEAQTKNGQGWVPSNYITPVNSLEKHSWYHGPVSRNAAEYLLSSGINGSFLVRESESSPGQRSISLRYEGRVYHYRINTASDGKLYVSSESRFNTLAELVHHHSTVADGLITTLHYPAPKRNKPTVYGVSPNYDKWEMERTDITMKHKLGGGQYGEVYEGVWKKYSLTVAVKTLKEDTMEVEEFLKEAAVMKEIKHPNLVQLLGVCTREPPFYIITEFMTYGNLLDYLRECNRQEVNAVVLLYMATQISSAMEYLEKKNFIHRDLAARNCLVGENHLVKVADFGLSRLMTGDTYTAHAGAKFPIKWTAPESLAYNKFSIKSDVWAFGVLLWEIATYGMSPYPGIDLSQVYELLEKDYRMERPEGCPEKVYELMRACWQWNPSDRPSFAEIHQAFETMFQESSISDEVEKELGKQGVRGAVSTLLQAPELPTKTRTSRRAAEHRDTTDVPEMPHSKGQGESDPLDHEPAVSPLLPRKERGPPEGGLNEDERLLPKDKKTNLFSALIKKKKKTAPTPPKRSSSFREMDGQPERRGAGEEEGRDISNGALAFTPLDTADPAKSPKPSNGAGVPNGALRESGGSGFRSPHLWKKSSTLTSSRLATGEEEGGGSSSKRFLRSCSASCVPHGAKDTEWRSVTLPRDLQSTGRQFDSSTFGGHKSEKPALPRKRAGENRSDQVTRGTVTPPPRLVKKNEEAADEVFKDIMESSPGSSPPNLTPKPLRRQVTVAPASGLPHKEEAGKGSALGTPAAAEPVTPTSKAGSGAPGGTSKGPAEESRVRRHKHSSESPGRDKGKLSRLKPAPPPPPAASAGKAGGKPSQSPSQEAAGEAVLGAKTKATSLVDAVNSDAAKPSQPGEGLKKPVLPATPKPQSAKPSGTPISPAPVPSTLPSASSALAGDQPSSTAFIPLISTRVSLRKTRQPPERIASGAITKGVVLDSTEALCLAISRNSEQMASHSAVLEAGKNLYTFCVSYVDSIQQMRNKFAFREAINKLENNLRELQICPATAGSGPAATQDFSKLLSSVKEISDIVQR
Chain of Cyclin-dependent kinase 18 (Homo sapiens) (Q07002 whole entry): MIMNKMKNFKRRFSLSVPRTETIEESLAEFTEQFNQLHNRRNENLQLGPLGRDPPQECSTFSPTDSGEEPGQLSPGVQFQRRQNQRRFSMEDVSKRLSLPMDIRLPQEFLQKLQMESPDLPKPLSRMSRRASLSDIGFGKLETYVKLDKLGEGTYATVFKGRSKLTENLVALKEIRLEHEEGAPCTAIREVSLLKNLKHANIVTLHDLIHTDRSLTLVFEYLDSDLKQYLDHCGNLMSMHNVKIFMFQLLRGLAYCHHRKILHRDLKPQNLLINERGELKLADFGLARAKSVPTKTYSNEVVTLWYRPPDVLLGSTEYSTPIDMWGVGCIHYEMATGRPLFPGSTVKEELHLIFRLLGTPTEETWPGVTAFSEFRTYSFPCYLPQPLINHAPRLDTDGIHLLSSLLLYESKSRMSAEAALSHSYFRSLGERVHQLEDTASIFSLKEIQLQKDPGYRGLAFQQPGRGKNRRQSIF
Chain of Tyrosine-protein kinase JAK1 (P23458 whole entry, canonical isoform): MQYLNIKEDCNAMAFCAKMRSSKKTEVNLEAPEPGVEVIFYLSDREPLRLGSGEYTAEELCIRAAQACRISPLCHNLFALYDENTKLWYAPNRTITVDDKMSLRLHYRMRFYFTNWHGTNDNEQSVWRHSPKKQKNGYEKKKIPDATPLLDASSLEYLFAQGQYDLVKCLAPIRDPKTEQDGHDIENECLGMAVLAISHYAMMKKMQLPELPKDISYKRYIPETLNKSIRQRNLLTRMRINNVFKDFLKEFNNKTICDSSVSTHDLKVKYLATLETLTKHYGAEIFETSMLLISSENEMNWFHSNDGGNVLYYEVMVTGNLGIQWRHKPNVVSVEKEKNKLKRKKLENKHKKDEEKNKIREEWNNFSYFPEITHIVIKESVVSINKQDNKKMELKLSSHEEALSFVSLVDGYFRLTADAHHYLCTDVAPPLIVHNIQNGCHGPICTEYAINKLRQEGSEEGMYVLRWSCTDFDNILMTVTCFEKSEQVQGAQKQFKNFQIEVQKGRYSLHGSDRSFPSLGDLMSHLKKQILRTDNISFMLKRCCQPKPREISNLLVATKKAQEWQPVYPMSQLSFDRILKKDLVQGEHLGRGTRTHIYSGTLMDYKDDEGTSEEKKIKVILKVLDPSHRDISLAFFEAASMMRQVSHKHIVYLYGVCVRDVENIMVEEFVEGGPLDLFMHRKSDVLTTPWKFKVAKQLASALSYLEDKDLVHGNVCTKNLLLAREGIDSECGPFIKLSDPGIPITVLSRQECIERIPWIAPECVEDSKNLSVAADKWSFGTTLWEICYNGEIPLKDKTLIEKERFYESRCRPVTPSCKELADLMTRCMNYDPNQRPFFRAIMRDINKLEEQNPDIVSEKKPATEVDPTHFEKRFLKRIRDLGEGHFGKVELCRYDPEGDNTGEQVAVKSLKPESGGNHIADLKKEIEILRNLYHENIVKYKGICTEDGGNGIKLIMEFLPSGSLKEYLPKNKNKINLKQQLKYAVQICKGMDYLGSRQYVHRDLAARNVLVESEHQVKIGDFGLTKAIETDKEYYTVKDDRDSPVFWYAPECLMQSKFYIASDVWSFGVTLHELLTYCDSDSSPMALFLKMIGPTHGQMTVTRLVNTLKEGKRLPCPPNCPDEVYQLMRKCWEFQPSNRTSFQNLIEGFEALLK

With `Cn1cc(Nc2nccc(N3CC4CCC(C3)N4C(=O)[C@@H]3CC3(F)F)n2)cn1`, in [1], the % of inhibition worked out at 96%. In assay [2], `COc1cc(N(C)c2ccnc3ccc(C(F)(F)F)cc23)cc(OC)c1OC` showed a % binding of 96%. For orientation: IC50 means the concentration needed to halve the response being measured. High values mean a need for much substance, low ones inhibition by little substance. For `CCC(=O)N1CC[C@H](Nc2ncnc3c2CN(c2cnc(OC)c(C(F)(F)F)c2)CC3)C1` [LENIOLISIB], in assay [3], the IC50 was more than 30 µM.

For `CC[C@@H]1[C@H](F)C(=O)N[C@@H]1COc1nccc2cc(C(N)=O)c(OC)cc12` [ZIMLOVISERTIB], the % of inhibition in assay [4] is -185%. On to `Cc1cnc(Nc2ccc(F)cc2Cl)nc1-c1c[nH]c(C(=O)N[C@H](CO)c2cccc(Cl)c2)c1`, for which the % of inhibition came to 3% in assay [5], 69% in assay [6] and 3% in assay [7].

`CCC(=O)N1CCN(c2ccc(-n3c(=O)ccc4cnc5ccc(-c6cnc7ccccc7c6)cc5c43)cc2C(F)(F)F)CC1` returned a % of control in [8] of 97%.

On to `C=CC(=O)Nc1cc(-n2c(=O)ccc3cnc4ccc(-c5ccc(NS(C)(=O)=O)cc5)cc4c32)ccc1C`, for which the % of control was determined as 98% in assay [9] (at 1 µM) and 100% in assay [9] (at 10 µM).
